# Measurements: patent publication US20070173416A1, “Well treatment compositions for use in acidizing a well” (Halliburton Energy Services, Inc., priority 2006, published 2007)
# Counter-ions that a name gives are not always drawn. Like-named read-outs stand apart in the source and are kept apart here.
# What was measured:
# physchem = details: for Half-Life in Neutral Water at 100° C. / half-life: buffer; for hydrolysis rate / reaction rate (comparison in words): deionized water
# Experimental: In the following examples, various ester hydrolysis reactions were run in the presence of calcium carbonate (CaCO3) to simulate the consumption of filter cake material. The acid evolved in each reaction was measured per unit of time. The acid generated upon hydrolysis was rapidly consumed in a secondary reaction that produced carbon dioxide (CO2). The half-life was secured when half of the CaCO3 was consumed. That is, using PV=nRT, the amount of CaCO3 that would yield approximately 1 liter of CO2 was calculated to be about 4.47 grams. We doubled the amount of CaCO3 (8.94 grams) for the reactions and then calculated the half-life based on the yield of 1 liter of CO2. Unless otherwise specified, all half-life quotations are actually the time required for 4.47 grams of CaCO3 to be consumed.
# The following general procedure was used in each of the examples. The closed system reactor shown in FIG. 1 was used to measure the amount of CO2 gas that evolved in each reaction. Water or brine was added to a boiling flask 10, which was heated to 100° C. […] Once the liquid was boiling, a weighed amount of ester was added to flask 10. The amount of ester employed was always in ratio to the water or to the make-up water used to formulate the brine except where commercially available brines were used. Following addition of the ester to the boiling liquid, a reflux condenser 12 was affixed to flask 10. The top of condenser 12 was fixed with an adapter 14 to an inlet tube 18 in a 2-hole rubber stopper 16. The inlet tube 18 was passed through stopper 16, providing a seal. An outlet tube 22 was run from the bottom of a flask 20 to a 1,000 mL graduated cylinder 24. The flask 20 was charged with XP-07 base oil, commercially available from Halliburton Energy Services, Inc. The outlet tube 22 served the purpose of discharging the oil into graduated cylinder 24. The hydrolysis reaction produced acid in flask 10 that reacted with the CaCO3 to produce CO2 gas. The gas displaced the oil in flask 20 into graduated cylinder 24. The rate of CO2 evolution thus could be monitored visually by reading of the amount of oil in graduated cylinder 24 per unit of time.
# Solutions containing various esters of lactic acid and of glycerol (i.e., monoacetin, ethyl lactate, triacetin, tripropionin), butyl formate (a control), and BDF-325 diethyleneglycol diformate (a control) in neutral water were prepared and combined with a molar ratio of CaCO3. Hydrolysis reactions were then carried out using the resulting solutions at 100° C. The hydrolysis reactions were monitored, and the half-lives of the esters were compared. The volume of oil displaced by the CO2 gas is plotted as a function of time in FIG. 2. […] The butyl formate to CaCO3 molar ratio was doubled for comparison purposes.
# Solutions containing 10 volume % monoacetin, diacetin, and triacetin in deionized water were prepared and combined with a molar ratio of CaCO3. Hydrolysis reactions were then carried out using the resulting solutions at 100° C. The hydrolysis reactions were monitored, and the half-lives of the esters were compared. The volume of oil displaced by the CO2 gas is plotted as a function of time in FIG. 3.
# [1] = at 100° C.; cited from earlier work
# Solubility in water = format: physicochemical
# [2] = hydrolysis in neutral water at 100° C.
# [3] = Half-Life in Neutral Water at 100° C.
Compound,hydrolysis rate / reaction rate (comparison in words) (physchem; 100° C.),Pseudo First Order Rate Constant (physchem; [2]),half-life (physchem; [3]),further results
CC(=O)OCC(O)COC(C)=O [Diacetin],very similar,4.75 × 10^−5 sec.^−1,–,"Half-Life in Neutral Water at 100° C. (physchem): 14,600 seconds"
CC(=O)O [acetic acid],–,–,–,strength of the acid (pH) [1]: 4.76
"CCCCOC=O [butyl formate, reference compound]",slow reaction rate,–,–,solubility in water (Solubility in water): poor solubility
CCCCOC(=O)C(C)O (centres unmarked) [Butyl lactate],faster than that of the butyl formate,9.03 × 10^−6 sec.^−1,21.3 h,solubility in water (Solubility in water): slightly soluble
CCC(=O)OCC(COC(=O)CC)OC(=O)CC [Tripropionin],–,–,–,"Pseudo First Order Rate Constant (physchem): 1.05 × 10^−5 sec.^−1; Half-Life in Neutral Water at 100° C. (physchem): 32,344.83 seconds"
CC(=O)OCC(O)CO (centres unmarked) [Monoacetin],–,1.8 × 10^−5 sec.^−1,–,"half-life versus targeted range (greater than 10 hours at 100° C. desired) (physchem; 10 volume % in deionized water, 100° C.): within the targeted range; consumed more slowly relative to the other two acetins (physchem; 10 volume % in deionized water, 100° C., vs triacetin and diacetin): 4-5 times; Half-Life in Neutral Water at 100° C. (physchem): 38,400 seconds"
CCOC(=O)C(C)O (centres unmarked) [Ethyl Lactate],–,2.2 × 10^−5 sec.^−1,8.71 h,"hydrolysis in deionized water and various brines (physchem; 10 volume % in deionized water and various brines, 100° C.): performed consistently; half-life (physchem; half-life): 10 to 11 h"
CC(=O)OCC(COC(C)=O)OC(C)=O [Triacetin],very similar,7.04 × 10^−5 sec.^−1,2.73 h,–
CCCOC(=O)C(C)O (centres unmarked) [Propyl lactate],–,7.4 × 10^−6 sec.^−1,25.8 h,–
"O=COCCOCCOC=O [diethyleneglycol diformate, reference compound]",–,–,–,half-life (physchem; half-life): 0.3 to 0.333 h
COC(=O)C(C)O (centres unmarked) [Methyl lactate],–,2.1 × 10^−5 sec.^−1,2.71 h,–
